Laboratory results published in patent US20090232913A1, “Composition for the Control of Cholesterol Levels” (priority 2005, published 2009).
Entries after “also recorded” stand apart in the source; their conditions may differ.

Assays:
normoglycaemic rats [1] = test: C peptide serum concentration in normoglycaemic rats; type: in vivo, Wistar rats; details: non-diabetic rats; treatment for 5 days
Method: In this study white, adult male Wistar rats with average weights between 200 to 300 grams were used. During the study, the animals had free access to food and water and were exposed to changes of dark and light every 12 hours. Access to the food was restricted 12 hours before measurement of glucose blood level with free access to water. The experiment was performed on a normoglycaemic group (Group 1, 32 rats, 8 per treatment) and diabetic rats (Group 2, 32 rats, 8 per treatment). For the diabetic rat experiments diabetes was induced with intraperitoneal injection of alloxan 100 mg/kg. Alloxan is very well verified diabetogenic substance for inducing diabetes in rats and other animal species (rabbit, dog, mice et […]). See, for example, […]. Coil Physicians Edinb, 32: 134-142, 2002; […], Diabetologia, 31: 337-342, 1988; Shaw et al., Lancet, 11: 384-386, 1943; Goldner & Gomori, Endocrinology, 35: 241-268, 1943. 1). Saline solution, 1 ml/kg, per orally, daily for 5 days (control group); 2). Stevioside, 20 mg/kg, orally, daily for 5 days; 3). […] 15 minutes after the 5th dose, the animals were exposed to an oral glucose tolerance test (OGTT) using 4 g/kg, orally. Glucose blood concentrations were measured before the treatment, after the 5th dose, before OGTT, and 30 minutes after OGTT. […] The following were measured in serum: 1). […]

diabetic rats [2] = test: Serum cholesterol concentrations after 7 day oral treatment of diabetic rats (lovastatin, MKH, combination); type: in vivo; details: for Effect on total cholesterol: 7 day oral dosage; for Effect on HDL levels: 7 days, MKH at 2 mg/kg
Excerpt: This is significant as HDLs are protective against heart disease (Despres et al., 2000, Atherosclerosis 153: 263-272). […] This is important as low LDL levels are associated with decreased risk of heart disease.

diabetic Wistar rats = test: Blood glucose and OGTT in alloxan-induced diabetic rats; type: in vivo; details: 5 days oral treatment
Method: In this study white, adult male Wistar rats with average weights between 200 to 300 grams were used. During the study, the animals had free access to food and water and were exposed to changes of dark and light every 12 hours. Access to the food was restricted 12 hours before measurement of glucose blood level with free access to water. The experiment was performed on a normoglycaemic group (Group 1, 32 rats, 8 per treatment) and diabetic rats (Group 2, 32 rats, 8 per treatment). For the diabetic rat experiments diabetes was induced with intraperitoneal injection of alloxan 100 mg/kg. Alloxan is very well verified diabetogenic substance for inducing diabetes in rats and other animal species (rabbit, dog, mice et […]). See, for example, […]. Coil Physicians Edinb, 32: 134-142, 2002; […], Diabetologia, 31: 337-342, 1988; Shaw et al., Lancet, 11: 384-386, 1943; Goldner & Gomori, Endocrinology, 35: 241-268, 1943. 1). Saline solution, 1 ml/kg, per orally, daily for 5 days (control group); 2). Stevioside, 20 mg/kg, orally, daily for 5 days; 3). […] In the diabetic rat the criterion for successful diabetes induction was blood glucose greater than 20 mmol/L on the third day after the last alloxan dose after 3 hours of fasting with free access to water. […] Glucose blood concentrations were measured before the treatment, after the 5th dose, before OGTT, and 30 minutes after OGTT. […]

normoglycaemic rats [3] = test: Serum cholesterol and lipid profile in normoglycaemic rats after 5 days treatment; type: in vivo, Wistar rats; details: for Changes in HDL serum cholesterol concentrations / Changes in total cholesterol in serum concentrations / LDL serum cholesterol concentrations relative to control values: normoglycaemic / non-diabetic rats, 5 days treatment
Method: In this study white, adult male Wistar rats with average weights between 200 to 300 grams were used. During the study, the animals had free access to food and water and were exposed to changes of dark and light every 12 hours. Access to the food was restricted 12 hours before measurement of glucose blood level with free access to water. The experiment was performed on a normoglycaemic group (Group 1, 32 rats, 8 per treatment) and diabetic rats (Group 2, 32 rats, 8 per treatment). For the diabetic rat experiments diabetes was induced with intraperitoneal injection of alloxan 100 mg/kg. Alloxan is very well verified diabetogenic substance for inducing diabetes in rats and other animal species (rabbit, dog, mice et […]). See, for example, […]. Coil Physicians Edinb, 32: 134-142, 2002; […], Diabetologia, 31: 337-342, 1988; Shaw et al., Lancet, 11: 384-386, 1943; Goldner & Gomori, Endocrinology, 35: 241-268, 1943. 1). Saline solution, 1 ml/kg, per orally, daily for 5 days (control group); 2). Stevioside, 20 mg/kg, orally, daily for 5 days; 3). […] 15 minutes after the 5th dose, the animals were exposed to an oral glucose tolerance test (OGTT) using 4 g/kg, orally. Glucose blood concentrations were measured before the treatment, after the 5th dose, before OGTT, and 30 minutes after OGTT. Then the animals were anaesthetised with urethane injected intraperitoneally, 750 mg/kg, and blood samples for further biochemical analyses were taken by cardiopunction. All biochemical analyses of serum were done by standard procedures, as recommended by the International Federation for Clinical Chemistry (IFCC), on automatic spectrophotometer LISA 300 plus with International Quality Control. The following were measured in serum: 1). Triglycerides concentration (GPO-PAP kit obtained from Boehringer Mannheim GmbH (Mannheim, Germany) in accordance with the manufacturers instructions) 2). […] C-peptide concentration. […] Generally the desired outcome was a decrease in low density lipoprotein (LDL), with no concomitant decrease in high density lipoprotein (HDL). It was also hypothesised that there would be a compatibility with glycaemic effects shown in Example 2. The experimental procedures were essentially those described in Example 2.

diabetic rats [4] = test: Serum cholesterol and lipid profile in diabetic rats after 5 days treatment; type: in vivo, Wistar rats; details: for Effect on LDL cholesterol levels: treatment for 5 days
Method: In this study white, adult male Wistar rats with average weights between 200 to 300 grams were used. During the study, the animals had free access to food and water and were exposed to changes of dark and light every 12 hours. Access to the food was restricted 12 hours before measurement of glucose blood level with free access to water. The experiment was performed on a normoglycaemic group (Group 1, 32 rats, 8 per treatment) and diabetic rats (Group 2, 32 rats, 8 per treatment). For the diabetic rat experiments diabetes was induced with intraperitoneal injection of alloxan 100 mg/kg. Alloxan is very well verified diabetogenic substance for inducing diabetes in rats and other animal species (rabbit, dog, mice et […]). See, for example, […]. Coil Physicians Edinb, 32: 134-142, 2002; […], Diabetologia, 31: 337-342, 1988; Shaw et al., Lancet, 11: 384-386, 1943; Goldner & Gomori, Endocrinology, 35: 241-268, 1943. 1). Saline solution, 1 ml/kg, per orally, daily for 5 days (control group); 2). Stevioside, 20 mg/kg, orally, daily for 5 days; 3). […] In the diabetic rat the criterion for successful diabetes induction was blood glucose greater than 20 mmol/L on the third day after the last alloxan dose after 3 hours of fasting with free access to water. 15 minutes after the 5th dose, the animals were exposed to an oral glucose tolerance test (OGTT) using 4 g/kg, orally. Glucose blood concentrations were measured before the treatment, after the 5th dose, before OGTT, and 30 minutes after OGTT. Then the animals were anaesthetised with urethane injected intraperitoneally, 750 mg/kg, and blood samples for further biochemical analyses were taken by cardiopunction. All biochemical analyses of serum were done by standard procedures, as recommended by the International Federation for Clinical Chemistry (IFCC), on automatic spectrophotometer LISA 300 plus with International Quality Control. The following were measured in serum: 1). Triglycerides concentration (GPO-PAP kit obtained from Boehringer Mannheim GmbH (Mannheim, Germany) in accordance with the manufacturers instructions) 2). […] C-peptide concentration. […] Generally the desired outcome was a decrease in low density lipoprotein (LDL), with no concomitant decrease in high density lipoprotein (HDL). It was also hypothesised that there would be a compatibility with glycaemic effects shown in Example 2. The experimental procedures were essentially those described in Example 2.

diabetic rats [5] = test: C peptide serum concentration in diabetic rats; type: in vivo, Wistar rats; details: treatment for 5 days
Method: In this study white, adult male Wistar rats with average weights between 200 to 300 grams were used. During the study, the animals had free access to food and water and were exposed to changes of dark and light every 12 hours. Access to the food was restricted 12 hours before measurement of glucose blood level with free access to water. The experiment was performed on a normoglycaemic group (Group 1, 32 rats, 8 per treatment) and diabetic rats (Group 2, 32 rats, 8 per treatment). For the diabetic rat experiments diabetes was induced with intraperitoneal injection of alloxan 100 mg/kg. Alloxan is very well verified diabetogenic substance for inducing diabetes in rats and other animal species (rabbit, dog, mice et […]). See, for example, […]. Coil Physicians Edinb, 32: 134-142, 2002; […], Diabetologia, 31: 337-342, 1988; Shaw et al., Lancet, 11: 384-386, 1943; Goldner & Gomori, Endocrinology, 35: 241-268, 1943. 1). Saline solution, 1 ml/kg, per orally, daily for 5 days (control group); 2). Stevioside, 20 mg/kg, orally, daily for 5 days; 3). […] Glucose blood concentrations were measured before the treatment, after the 5th dose, before OGTT, and 30 minutes after OGTT. […] The following were measured in serum: 1). […]

Structure (SMILES) | Effect on C peptide levels (normoglycaemic rats [1]) | Effect on total cholesterol (diabetic rats [2]) | Effect on LDL levels (diabetic rats [2]; 7 days oral treatment, MKH 2 mg/kg, Lovastatin 20 mg/kg) | Effect on HDL levels (diabetic rats [2]; Lovastatin 20 mg/kg) | Effect on LDL:HDL ratio (diabetic rats [2]; by Day 7) | Effect on glucose levels both before and after the OGTT (diabetic Wistar rats) | Changes in HDL serum cholesterol concentrations (normoglycaemic rats [3]) | Changes in total cholesterol in serum concentrations (normoglycaemic rats [3]) | LDL serum cholesterol concentrations relative to control values (normoglycaemic rats [3]) | LDL: HDL Ratio (ratios of means) (normoglycaemic rats [3]; normoglycaemic rats, n = 8, after 5 days treatment) | Changes in total cholesterol in serum concentrations (diabetic rats [4]; 5 days treatment) | Effect on LDL:HDL ratio (diabetic rats [4]; 5 days treatment) | Effect on HDL levels (diabetic rats [4]; 5 days, MKH at 4 mg/kg) | LDL: HDL Ratio (ratios of means) (diabetic rats [4]; n = 8, after 5 days treatment) | Effect on LDL cholesterol levels (diabetic rats [4]) | Effect on C-peptide (diabetic rats [5])
C[C@H](CCC(=O)O)[C@H]1CC[C@H]2[C@@H]3[C@H](O)C[C@@H]4C[C@H](O)CC[C@]4(C)[C@H]3CC(=O)[C@]12C [MKH, 3α,7α-dihydroxy-12-oxo-5β-cholanate] | Neither stevioside or 3α,7α-dihydroxy-12-oxo-5β-cholanate alone had statistically significant effects | reduced total cholesterol by a similar amount | very highly significant decrease in LDL levels; also recorded: significantly greater than that achieved by Lovastatin | this effect was not observed; also recorded: did not do so | significant decrease in the LDL:HDL ratio | significant decrease in glucose levels | no significant changes | no significant changes | significantly decreased (one third of control values) | 0.01 | no significant changes | slight increase in LDL:HDL ratio | A decrease was observed | 1.12 | decreases in LDL levels and while these were not statistically significant | 
CC[C@H](C)C(=O)O[C@H]1C[C@@H](C)C=C2C=C[C@H](C)[C@H](CC[C@@H]3C[C@@H](O)CC(=O)O3)[C@H]21 [Lovastatin, reference compound] |  | reduced total cholesterol by a similar amount |  | reduced HDLs significantly |  |  |  |  |  |  |  |  |  |  |  | 
C=C1C[C@@]23CC[C@H]4[C@@](C)(CCC[C@@]4(C)C(=O)O[C@@H]4O[C@H](CO)[C@@H](O)[C@H](O)[C@H]4O)[C@@H]2CC[C@]1(O[C@@H]1O[C@H](CO)[C@@H](O)[C@H](O)[C@H]1O[C@@H]1O[C@H](CO)[C@@H](O)[C@H](O)[C@H]1O)C3 [Stevioside, stevioside] | Neither stevioside or 3α,7α-dihydroxy-12-oxo-5β-cholanate alone had statistically significant effects |  |  |  |  |  | no significant changes | no significant changes | significantly decreased (one third of control values) |  | no significant changes |  |  |  | highly significant decrease in LDL cholesterol levels | significant increases in C-peptide
